According to US9045551B2, “Anti-DLL4/VEGF dual variable domain immunoglobulin and uses thereof” (AbbVie Inc., priority 2012, dated 2015):
Marks after values point to notes of the source that are not given here.

Tests used:
[1] = tested on: U87-MG human glioblastoma xenograft tumors; assay: U87-MG glioblastoma xenograft, combination with Temozolomide (Example 6); assay type: in vivo, female SCID mice; settings: 5 mg/kg IP
Description: The effect of anti-DLL4/anti-VEGF DVDs in combination with chemotherapy on tumor growth was evaluated on U87-MG human glioblastoma xenograft tumors in female SCID mice. Briefly, 3×10^6 cells were inoculated subcutaneously into the right hind flank. Tumors were allowed to establish for 22 days, at which point tumor volume was determined using electronic caliper measurements using the formula: L×W^2/2. Mice were allocated into treatment groups (n=10 per group) so that each cohort had equivalent mean tumor volume of 207 mm^3 prior to initiation of therapy. Animals were dosed intraperitoneally with a single dose of Temozolomide® and/or four weekly doses of anti-DLL4/anti-VEGF DVD, with tumor volume measured twice a week for the duration of the experiment.

[2] = tested on: U87-MG human glioblastoma xenograft tumors; assay: U87-MG glioblastoma xenograft, combination with temozolomide (Example 11); assay type: in vivo, female SCID mice; settings: 5 mg/kg IP, qdX1
Description: (§1) The effect of anti-DLL4-VEGF DVD-Igs in combination with chemotherapy on tumor growth was evaluated on U87-MG human glioblastoma xenograft tumors in female SCID mice. Briefly, 3×10^6 cells were inoculated subcutaneously into the right hind flank. Tumors were allowed to establish for 13 days, at which point tumor volume was determined using electronic caliper measurements using the formula: L×W^2/2. Mice were allocated into treatment groups (n=10 per group) so that each cohort had equivalent mean tumor volume of 207 mm^3 prior to initiation of therapy. Animals were dosed with temozolomide, anti-VEGF mAb, and/or anti-DLL4-VEGF DVD-Ig at the dose and schedule in Table 30. Tumor volume was measured twice a week for the duration of the experiment.

[3] = tested on: PA0123 patient-derived human pancreatic xenograft tumors; assay: PA0123 patient-derived pancreatic xenograft, combination with gemcitabine; assay type: in vivo, female NSG mice; settings: 100 mg/kg IP, [q3dX4]X2
Description: The effect of anti-DLL4-VEGF DVD-Igs in combination with chemotherapy on tumor growth was evaluated on PA0123 patient-derived human pancreatic xenograft tumors in female NSG mice. Briefly, frozen tumor fragments were implanted subcutaneously into the right hind flank. Tumors were allowed to establish for 28 days, at which point tumor volume was determined using electronic caliper measurements using the formula: L×W^2/2. Mice were allocated into treatment groups (n=7 per group) so that each cohort had equivalent mean tumor volume of 193 mm^3 prior to initiation of therapy. Animals were dosed with gemcitabine and/or anti-DLL4-VEGF DVD-Ig, at the dose and schedule in Table 31. Tumor volume was measured twice a week for the duration of the experiment.

[4] = tested on: SW-48 human colon xenograft tumors; assay: SW-48 colon xenograft, combination with irinotecan; assay type: in vivo, female SCID mice; settings: 60 mg/kg IP, q3dX4
Description: as §1, with “SW-48” for “U87-MG”, “colon” for “glioblastoma”, “5×10^6” for “3×10^6”, “211” for “207”, “irinotecan,” for “temozolomide,”, “27.” for “30.”

[5] = tested on: HT-29 human colon xenograft tumors; assay: HT-29 colon xenograft, combination with irinotecan; assay type: in vivo, female SCID mice; settings: 60 mg/kg IP, q3dX4
Description: The effect of anti-DLL4-VEGF DVD-Igs in combination with chemotherapy on tumor growth was evaluated on HT-29 human colon xenograft tumors in female SCID mice. Briefly, 2×10^6 cells were inoculated subcutaneously into the right hind flank. Tumors were allowed to establish for 25 days, at which point tumor volume was determined using electronic caliper measurements using the formula: L×W^2/2. Mice were allocated into treatment groups (n=10 per group) so that each cohort had equivalent mean tumor volume of 209 mm^3 prior to initiation of therapy. Animals were dosed with irinotecan and/or anti-DLL4-VEGF DVD-Ig, at the dose and schedule in Table 29. Tumor volume was measured twice a week for the duration of the experiment.

[6] = tested on: SUM149PT human breast xenograft tumors; assay: SUM149PT breast xenograft, combination with paclitaxel (Table 33); assay type: in vivo, female SCID mice; settings: 25 mg/kg IP, [q4dX3]X4
Description: (§2) The effect of anti-DLL4-VEGF DVD-Igs in combination with chemotherapy on tumor growth was evaluated on SUM149PT human breast xenograft tumors in female SCID mice. Briefly, 1×10^6 cells were inoculated subcutaneously into the right hind flank. Tumors were allowed to establish for 28 days, at which point tumor volume was determined using electronic caliper measurements using the formula: L×W^2/2. Mice were allocated into treatment groups (n=9 per group) so that each cohort had equivalent mean tumor volume of 183 mm^3 prior to initiation of therapy. Animals were dosed with paclitaxel and/or anti-DLL4-VEGF DVD-Ig, at the dose and schedule in Table 33. Tumor volume was measured twice a week for the duration of the experiment.

[7] = tested on: SUM149PT human breast xenograft tumors; assay: SUM149PT breast xenograft, combination with paclitaxel and anti-VEGF mAb (Table 34); assay type: in vivo, female SCID mice; settings: 25 mg/kg IP, [q4dX3]X4; day 18 post size match
Description: as §2, with “25” for “28”, “(n=10” for “(n=9”, “228” for “183”, “paclitaxel, anti-VEGF mAb” for “paclitaxel”, “34.” for “33.”

[8] = tested on: MDA-MB-231-luc human breast xenograft tumors; assay: MDA-MB-231-luc breast xenograft, combination with paclitaxel; assay type: in vivo, female SCID mice; settings: 25 mg/kg IP, q4dX3
Description: The effect of anti-DLL4-VEGF DVD-Igs in combination with chemotherapy on tumor growth was evaluated on MDA-MB-231-luc human breast xenograft tumors in female SCID mice. Briefly, 2×10^6 cells were implanted in the mammary fat pad. Tumors were allowed to establish for 13 days, at which point tumor volume was determined using electronic caliper measurements using the formula: L×W^2/2. Mice were allocated into treatment groups (n=10 per group) so that each cohort had equivalent mean tumor volume of 150 mm^3 prior to initiation of therapy. Animals were dosed with paclitaxel and/or anti-DLL4-VEGF DVD-Ig, at the dose and schedule in Table 32. Tumor volume was measured twice a week for the duration of the experiment. Additionally, bioluminescent images were acquired to monitor and track spontaneous metastasis of cancer cell to the lung and/or lymph nodes Results are shown in Table 32.

[9] = biological target: T1, human DLL4529 (Homo sapiens, UniProt Q9NR61); assay: BIACORE surface plasmon resonance binding kinetics, human DLL4; settings: BIAcore human DLL4529, 25° C.
T1 construct: a purified recombinant DLL4 extracellular domain (ECD)
Description: A BIACORE assay (Biacore, Inc, Piscataway, N.J.) was used to evaluate the binding of DVDs to a purified recombinant DLL4 extracellular domain (ECD) or to VEGF165, as determined by surface plasmon resonance-based measurements made on a Biacore 2000, Biacore 3000 or Biacore T100 (GE Healthcare, Piscataway, N.J.) at 25° C. For DLL4 binding kinetic measurements the assay buffer was HBS-EPB: 10 mM Hepes, pH7.5, 150 mM NaCl, 3 mM EDTA, 0.005% Tween 20, 0.1 mg/ml BSA (Sigma A7906). For VEGF binding kinetic measurements the assay buffer was HBS-EP+(3N01B): 10 mM Hepes, pH7.5, 300 mM NaCl, 3 mM EDTA, 0.05% Tween 20, 0.1 mg/ml BSA (Sigma A7906). For example, approximately 9000 RU of goat anti-human Fc specific polyclonal antibody (Thermo Fisher Scientific Inc., Rockford, Ill.) diluted in 10 mM sodium acetate (pH 4.5) is directly immobilized across a CM5 research grade biosensor chip using a standard amine coupling kit according to manufacturer's instructions and procedures at 25 ug/ml. […] The equilibrium dissociation constant KD (M) of the reaction between antibodies and the target antigen is then calculated from the kinetic rate constants by the following formula: KD=Koff/Kon. Binding is recorded as a function of time and kinetic rate constants are calculated. In this assay, on-rates as fast as 10^6 M^−1s^−1 and off-rates as slow as 10^−6 s^−1 can be measured.

## Cn1nnc2c(C(N)=O)ncn2c1=O [Temozolomide, reference compound]
[1]; qdX1, day 19 post size match
  % TGI (Percent tumor growth inhibition): 65*** %
[1]; qdX1, endpoint of 1000 mm^3
  % TGD (Percent tumor growth delay): 45*** %
[2]; day 19 post size match
  % TGI (Percent tumor growth inhibition): 65*** %
[2]; endpoint of 1000 mm^3
  % TGD (Percent tumor growth delay): 45*** %

## Nc1ccn([C@@H]2O[C@H](CO)[C@@H](O)C2(F)F)c(=O)n1 [gemcitabine, reference compound]
[3]; day 38 post size match
  % TGI (Percent tumor growth inhibition): 48** %
[3]; endpoint of 1000 mm^3
  % TGD (Percent tumor growth delay): 43** %

## CCc1c2c(nc3ccc(OC(=O)N4CCC(N5CCCCC5)CC4)cc13)-c1cc3c(c(=O)n1C2)COC(=O)[C@]3(O)CC [irinotecan, reference compound]
[4]; day 18 post size match
  % TGI (Percent tumor growth inhibition): 77*** %
[4]; endpoint of 1000 mm^3
  % TGD (Percent tumor growth delay): 106*** %
[5]; day 20 post size match
  % TGI (Percent tumor growth inhibition): 47* %
[5]; endpoint of 1000 mm^3
  % TGD (Percent tumor growth delay): 60* %

## CC(=O)O[C@H]1C(=O)[C@@]2(C)[C@H]([C@H](OC(=O)c3ccccc3)[C@]3(O)C[C@H](OC(=O)[C@H](O)[C@@H](NC(=O)c4ccccc4)c4ccccc4)C(C)=C1C3(C)C)[C@]1(OC(C)=O)CO[C@@H]1C[C@@H]2O [paclitaxel, reference compound]
[6]; day 22 post size match
  % TGI (Percent tumor growth inhibition): 60*** %
[6]; endpoint of 1000 mm^3
  % TGD (Percent tumor growth delay): 173*** %
[7]
  % TGI (Percent tumor growth inhibition): 50* %
[8]; bioluminescent imaging, day 22 post size match, treatment control group 100%
  % met incidence (Percent of animals with detectable signal in the lung and/or lymph nodes): 40* %
[8]; day 15 post size match
  % TGI (Percent tumor growth inhibition): 78*** %
[8]; endpoint of 1000 mm^3
  % TGD (Percent tumor growth delay): 106*** %

B1: h1A11.1: humanized anti-DLL4 mAb, parent antibody; VH SEQ ID NO: 39, VL SEQ ID NO: 40 (antibody, V domains shown)
VH: EVQLVESGGGLVQPGGSLRLSCAASGFTFSNFPMAWVRQAPGKGLEWVATISSSDGTTYYRDSVKGRFTISRDNAKNSLYLQMNSLRAEDTAVYYCARGYYNSPFAYWGQGTLVTVSS
VL: DIQMTQSPSSLSASVGDRVTITCRASEDIYSNLAWYQQKPGKAPKLLIYDTNNLADGVPSRFSGSGSGTDFTLTISSLQPEDFATYYCQQYNNYPPTFGQGTKLEIKR
[9]
  Koff: 0.00193 s⁻¹
  Kon: 160000 M⁻¹ s⁻¹
